# Source: publication PMC5293562, “Engineering a trifunctional proline utilization A chimaera by fusing a DNA-binding domain to a bifunctional PutA” (Bioscience Reports, 2016)
# Where two headings read alike, the source gives them in different places.
# Tests used:
# [1] = test system: T1, EcRHH–RcPutA; test: stopped-flow, CoQ1 reduction at […] nm; assay type: biochemical, Rhodobacter capsulatus; conditions: 50 mM potassium phosphate pH 7.5, 25 mM NaCl, 23°C
# T1 construct: gene putA; single polypeptide: E. coli PutA RHH domain (residues 1-52) fused via NdeI linker to N-terminus of full-length R. capsulatus PutA; 1180 aa; N-terminal His6 tag retained; pET28a, E. coli BL21(DE3) pLysS; homodimer, 126 kDa monomer
# [2] = target: T2, EcPutA (Escherichia coli, UniProt P09546); conditions: 50 mM proline reduces flavin; anaerobic; HEPES pH 7.5, 150 mM NaCl; room temperature
# T2 construct: gene putA
# [3] = target: T3, RcPutA (Rhodobacter capsulatus, UniProt D5AN87); conditions: 50 mM proline reduces flavin; anaerobic; HEPES pH 7.5, 150 mM NaCl; room temperature
# T3 construct: gene putA
# [4] = target: EcRHH–RcPutA chimaera (RHH domain of Escherichia coli PutA fused to the N-terminus of Rhodobacter capsulatus PutA) (Escherichia coli | Rhodobacter capsulatus) (UniProt P09546); test: SAXS; three protein concentrations after size exclusion chromatography in 50 mM Tris, 200 mM NaCl, 0.5 mM THP, pH 7.5; mass from volume of correlation and Porod-Debye analysis; shape reconstruction with 2-fold symmetry
# [5] = target: EcRHH–RcPutA chimaera (RHH domain of Escherichia coli PutA fused to the N-terminus of Rhodobacter capsulatus PutA) (Escherichia coli | Rhodobacter capsulatus) (UniProt P09546); test: AUC; sedimentation equilibrium, 0.2, 0.5 and 0.8 mg/ml, 8000 rpm, 50 mM Tris pH 7.5, 100 mM NaCl, 0.5 mM EDTA, 5% glycerol; global fit to an ideal single-species model
# [6] = test system: EcRHH-RcPutA chimaera (Escherichia coli / Rhodobacter capsulatus (chimaera)); test: EMSA; conditions: EMSA with 3 nM IRdye-700 put control DNA, 100 ug/ml calf thymus DNA, non-denaturing 4% polyacrylamide gel; binding buffer, salt, pH and temperature not given …
# Chain of EcRHH–RcPutA chimaera (RHH domain of Escherichia coli PutA fused to the N-terminus of Rhodobacter capsulatus PutA) (P09546 whole entry, the tested form may be a part): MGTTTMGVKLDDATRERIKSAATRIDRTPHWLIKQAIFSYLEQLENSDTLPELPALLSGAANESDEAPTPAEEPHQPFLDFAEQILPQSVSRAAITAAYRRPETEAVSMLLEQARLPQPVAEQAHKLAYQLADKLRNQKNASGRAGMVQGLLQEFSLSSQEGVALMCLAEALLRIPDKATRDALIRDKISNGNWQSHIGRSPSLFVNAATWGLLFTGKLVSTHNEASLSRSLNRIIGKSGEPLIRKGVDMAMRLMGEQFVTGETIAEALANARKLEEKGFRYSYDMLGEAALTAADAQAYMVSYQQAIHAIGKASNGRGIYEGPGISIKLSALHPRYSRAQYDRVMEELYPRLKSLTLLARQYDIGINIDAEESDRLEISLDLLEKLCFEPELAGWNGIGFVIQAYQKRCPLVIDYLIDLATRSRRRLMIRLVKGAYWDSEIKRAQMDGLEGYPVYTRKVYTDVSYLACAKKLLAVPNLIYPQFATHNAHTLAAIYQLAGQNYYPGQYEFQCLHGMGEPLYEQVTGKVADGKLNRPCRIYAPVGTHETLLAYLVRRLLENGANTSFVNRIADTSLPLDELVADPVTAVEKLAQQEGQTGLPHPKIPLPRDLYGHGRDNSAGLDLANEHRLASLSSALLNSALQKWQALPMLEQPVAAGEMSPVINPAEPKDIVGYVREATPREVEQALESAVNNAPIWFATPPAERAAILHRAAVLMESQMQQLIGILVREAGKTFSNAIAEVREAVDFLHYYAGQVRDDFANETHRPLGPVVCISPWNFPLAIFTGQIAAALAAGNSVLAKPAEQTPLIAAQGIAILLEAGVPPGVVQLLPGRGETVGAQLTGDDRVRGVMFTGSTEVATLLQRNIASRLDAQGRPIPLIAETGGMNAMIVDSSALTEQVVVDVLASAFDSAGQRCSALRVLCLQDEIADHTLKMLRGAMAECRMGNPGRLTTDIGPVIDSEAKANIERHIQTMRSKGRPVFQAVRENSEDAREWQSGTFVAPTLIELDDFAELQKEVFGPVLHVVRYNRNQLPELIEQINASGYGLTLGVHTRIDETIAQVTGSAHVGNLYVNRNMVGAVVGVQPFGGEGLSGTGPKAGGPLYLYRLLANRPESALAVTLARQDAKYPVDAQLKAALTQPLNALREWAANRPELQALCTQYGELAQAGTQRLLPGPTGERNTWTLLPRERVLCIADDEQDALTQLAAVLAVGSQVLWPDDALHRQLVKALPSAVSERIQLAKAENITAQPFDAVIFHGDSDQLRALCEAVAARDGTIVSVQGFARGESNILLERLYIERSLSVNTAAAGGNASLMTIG
# T2 sequence (P09546 whole entry): as the sequence (P09546 whole entry, the tested form may be a part) above
# T3 sequence (D5AN87 1-1127): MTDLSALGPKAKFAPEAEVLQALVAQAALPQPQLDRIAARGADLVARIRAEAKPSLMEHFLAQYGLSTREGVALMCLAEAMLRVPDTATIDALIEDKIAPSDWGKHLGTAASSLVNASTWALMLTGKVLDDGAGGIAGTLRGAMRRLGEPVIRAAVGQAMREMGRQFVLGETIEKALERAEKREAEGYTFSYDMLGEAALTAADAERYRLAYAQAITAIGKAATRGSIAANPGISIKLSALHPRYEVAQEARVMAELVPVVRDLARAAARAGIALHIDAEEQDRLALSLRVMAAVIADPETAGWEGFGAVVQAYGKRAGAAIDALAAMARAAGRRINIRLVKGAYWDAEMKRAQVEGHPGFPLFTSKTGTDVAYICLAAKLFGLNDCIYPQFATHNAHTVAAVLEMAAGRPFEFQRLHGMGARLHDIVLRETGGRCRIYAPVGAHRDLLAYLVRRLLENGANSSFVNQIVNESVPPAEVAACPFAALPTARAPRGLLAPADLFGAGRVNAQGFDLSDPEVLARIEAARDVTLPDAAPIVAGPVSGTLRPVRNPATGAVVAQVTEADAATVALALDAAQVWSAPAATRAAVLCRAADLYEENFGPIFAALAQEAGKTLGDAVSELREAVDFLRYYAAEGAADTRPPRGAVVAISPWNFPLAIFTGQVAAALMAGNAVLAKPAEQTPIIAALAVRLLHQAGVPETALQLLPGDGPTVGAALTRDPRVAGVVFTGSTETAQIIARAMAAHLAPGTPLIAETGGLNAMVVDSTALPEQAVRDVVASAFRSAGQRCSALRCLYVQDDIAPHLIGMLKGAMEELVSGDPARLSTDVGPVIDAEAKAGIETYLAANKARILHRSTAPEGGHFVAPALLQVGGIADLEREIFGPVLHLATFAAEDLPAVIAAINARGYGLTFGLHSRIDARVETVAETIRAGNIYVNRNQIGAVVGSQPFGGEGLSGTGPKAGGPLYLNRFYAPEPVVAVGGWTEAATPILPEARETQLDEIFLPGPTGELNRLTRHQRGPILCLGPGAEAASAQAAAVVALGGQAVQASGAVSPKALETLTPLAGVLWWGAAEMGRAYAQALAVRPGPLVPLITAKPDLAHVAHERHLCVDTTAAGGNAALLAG
molecule,measurement,setting,value
COC1=C(OC)C(=O)C(CC=C(C)C)=C(C)C1=O [CoQ1],Km,"[1]; PRODH electron acceptor, 200 mM proline, read-out: Proline / Km",161 ± 15.8 µM
O=C(O)[C@@H]1CCCN1 [proline],"lipid pull-down (E. coli polar lipid vesicles), SDS/PAGE",[2],"RcPutA, EcRHH–RcPutA and EcPutA were incubated with E. coli polar lipid vesicles"
same,Km,"[1]; PRODH site, 300 μM CoQ1, read-out: Km",5300 ± 900 µM
same,"lipid pull-down (E. coli polar lipid vesicles), SDS/PAGE",[3],"In the presence of proline, RcPutA and EcRHH–RcPutA significantly partition into the lipid fraction"
EcRHH–RcPutA chimaera (RHH domain of Escherichia coli PutA fused to the N-terminus of Rhodobacter capsulatus PutA) (from UniProt P09546 1-52) (enzyme),stoichiometry N,[4],2
same,stoichiometry N,[5],2
put control DNA (420 bp),Kd,[6],58 nM
